One may read the half-life as the time in which the quantity being followed falls by half.

One series concerns the target T1, human TRPA1 (hTRPA1) (Homo sapiens, UniProt O75762).
T1 construct: expressed in transfected cells
The experiment in a line: Inhibition of human TRPA1, whole-cell patch clamp. As to conditions: antagonist effect, whole cell patch configuration; read-out: hTRPA1. The class given is cell-based. How it is done:
Data for TRPA1 inhibition was obtained by this method for the indicated compounds of Formula (I), with the relevant data included in Table 14 below. All currents were recorded in whole-cell configuration using EPC-9 and EPC-10 amplifiers and Patchmaster software (HEKA). […] The standard pipette solution consisted of 140 mM CsAsp, 10 mM EGTA, 10 mM HEPES, […], 1.91 mM CaCl2, and up to 0.3 mM Na2GTP, with pH adjusted to 7.2 with CsOH. In addition, a solution containing 145 mM CsCl, 10 mM HEPES, 10 mM EGTA, and up to 0.3 mM Na2GTP and 1 mM MgCl2 (pH 7.2 adjusted with CsOH) can be used. The standard bath solution contained 150 mM NaCl, 10 mM HEPES, 10 mM glucose, 4.5 mM KCl, 1 mM EGTA, 3 mM MgCl2, with pH adjusted to 7.4 with NaOH. In some instances, 2 mM CaCl2 was added in place of EGTA and the concentration of MgCl2 was reduced to 1 mM.
Data were collected either by continuous recordings at −60 mV or by applying voltage ramps from a holding potential of 0 mV every 4 s. Continuous recordings were collected at 400 Hz and digitally filtered off-line at 10 Hz for presentation. Voltage ramps were applied from −100 mV to 100 mV over the course of 400 ms, and data were collected at 10 kHz and filtered at […]. Inward and outward currents were analyzed from the ramps at −80 and 80 mV, respectively. Liquid junction potential correction was not used.
Solutions were switched using a gravity-fed continuous focal perfusion system. To achieve rapid temperature changes, two temperature control, and perfusion systems were employed simultaneously. For temperatures greater than or equal to 22° C., a Warner Instruments bipolar temperature controller (TC-344B) and inline heater (SHM-8) were used. […] Temperatures were confirmed using a thermistor (Warner Instruments, TA-29), with temperatures at the recorded cell estimated to be within +/−2° C. of those reported.
The antagonist effects of compounds of Formula (I) against human TRPA1 (“hTRPA1”) in a whole cell patch configuration were evaluated using the in vitro assay protocol described above.
In general terms: Patch clamp records ionic current or voltage across a cell membrane.

The nature of series [1]: Kinetic solubility in buffered solutions. Type of series: physicochemical. The following applies: aqueous buffer, kinetic from dmso stock, 24 hours ambient. As for the experimental part: The solubilities of the compounds of Formula (I) were tested using the procedure outlined in Kerns, E. H., J Pharm Sci (2001) 90:1838-1858, incorporated herein by reference and described below. Data for solubility was obtained by this method for compounds of Formula (I) and included in Table 3. The chromatographic data was performed by HPLC using an Xbridge Shield RP18 column with the following column dimensions: 4.6×30 mm, 3.5 μm. The mobile phase consisted of deionized water (MPA) with trifluoroacetic acid added in at 0.1% (v/v) (MPC) and HPLC-grade acetonitrile (MPB). The mobile phase flow rate was 2.5 mL/min with the column and sampling operating at ambient temperature. UV detection was set to 280 nm.
Samples for analysis of the compounds of Formula (I) were prepared at a % v/v=1/19 (i.e., 10 μL of the stock solution into 190 μL of buffer) by spiking stock solutions of the compounds of Formula (I) into buffered solutions. Three buffered solution systems were prepared: pH 4.0 prepared from 50 mM sodium acetate in a 5% dextrose in water solution, pH 7.4 prepared from 75 mM sodium phosphate in a 1:1 ratio of sterilized water for injection to a 5% dextrose in water solution, and pH 9.0 prepared from 50 mM sodium bicarbonate in a 1:2 ratio of sterilized water for injection to a 5% dextrose in water solution. The samples were incubated on a microplate shaker at 300 rpm for 24 hours at ambient temperature. Following incubation, the samples were centrifuged for five minutes at 13 k rpm at ambient temperature. The resulting supernantant was extracted for HPLC analysis.

A short description of series [2]: Metabolic stability in liver microsomes. The class given is in vitro ADME, human. The following applies: 1 μM test compound; for half-life at 1 μM: human, liver microsomes, 37° C. As for the experimental part:
(§1) Metabolic stability of the compounds of Formula (I) was determined by standard liver microsome assays. Briefly, metabolic stability was tested by adding the compound to be tested dissolved in DMSO to human, dog, or rat liver microsomes. Assays were run with a starting concentration of 1 μM test compound. The reaction was initiated by addition of nicotinamide adenine dinucleotide phosphate[…] (NADPH) regeneration components at 37° C., at which time an aliquot was immediately quenched in an ice-cold acetonitrile/methanol/water solution. Reaction mixture was incubated at 37° C. on a shaker, and additional aliquots were taken at 7, 15, 30 and 60 minutes. Following quench and centrifugation, samples were analyzed on HPLC/MS/MS.

Series [3] can be described thus: Metabolic stability in liver microsomes. Type of series: in vitro ADME. As to conditions: rat liver microsomes, both sexes; read-out: Half-Life Both sexes. As for the experimental part: as §1
Setting [4] is: sodium acetate buffer, pH 4.0, 50 mM sodium acetate, read-out: pH 4.0 solubility.
The mark [5] stands for this setting: sodium bicarbonate buffer, pH 9.0, 50 mM sodium bicarbonate, read-out: pH 9.0 solubility.
Setting [6] is: sodium phosphate buffer, pH 7.4, 75 mM sodium phosphate, read-out: pH 7.4 solubility.

In brackets after ≈: the same amount, converted by molar mass. Read-outs that look alike come from different tables or passages of the source.

T1 sequence (O75762 whole entry): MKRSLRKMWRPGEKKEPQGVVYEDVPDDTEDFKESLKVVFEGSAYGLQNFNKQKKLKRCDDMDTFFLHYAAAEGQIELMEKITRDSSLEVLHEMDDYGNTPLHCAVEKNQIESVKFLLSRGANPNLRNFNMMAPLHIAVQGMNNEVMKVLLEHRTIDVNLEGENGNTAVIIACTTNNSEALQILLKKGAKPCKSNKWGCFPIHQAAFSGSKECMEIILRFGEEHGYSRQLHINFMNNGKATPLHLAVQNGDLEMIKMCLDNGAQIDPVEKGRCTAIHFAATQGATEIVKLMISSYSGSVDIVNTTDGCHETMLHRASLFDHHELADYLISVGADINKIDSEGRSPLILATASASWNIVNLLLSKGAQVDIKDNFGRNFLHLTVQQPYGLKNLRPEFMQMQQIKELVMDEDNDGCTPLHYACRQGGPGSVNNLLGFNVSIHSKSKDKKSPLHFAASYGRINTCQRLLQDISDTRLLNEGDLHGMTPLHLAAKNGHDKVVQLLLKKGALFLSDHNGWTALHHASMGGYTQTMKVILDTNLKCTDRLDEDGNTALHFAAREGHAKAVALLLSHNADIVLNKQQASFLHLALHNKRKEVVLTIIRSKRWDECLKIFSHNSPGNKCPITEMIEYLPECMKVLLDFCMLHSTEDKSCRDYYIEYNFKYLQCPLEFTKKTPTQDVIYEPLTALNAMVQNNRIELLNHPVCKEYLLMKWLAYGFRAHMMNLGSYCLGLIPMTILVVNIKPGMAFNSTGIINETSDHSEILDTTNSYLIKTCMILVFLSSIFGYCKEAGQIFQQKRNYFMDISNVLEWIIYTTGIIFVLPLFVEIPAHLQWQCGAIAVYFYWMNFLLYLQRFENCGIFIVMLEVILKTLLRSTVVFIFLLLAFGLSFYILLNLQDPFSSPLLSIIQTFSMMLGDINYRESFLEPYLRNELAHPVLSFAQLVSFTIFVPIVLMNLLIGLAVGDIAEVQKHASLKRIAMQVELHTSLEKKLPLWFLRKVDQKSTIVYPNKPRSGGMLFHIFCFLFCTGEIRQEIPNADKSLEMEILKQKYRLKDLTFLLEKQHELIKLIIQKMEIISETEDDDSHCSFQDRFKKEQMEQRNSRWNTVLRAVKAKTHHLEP

Take `Cn1c(=O)c2c(ncn2CC(=O)Nc2ccnc(-c3cnc(N4CC5CC5C4)nc3)n2)n(C)c1=O` (stereo not shown) [Compound 10, N-(2′-(3-azabicyclo[3.1.0]hexan-3-yl)-[2,5′-bipyrimidin]-4-yl)-2-(1,3-dimethyl-2,6-dioxo-2,3-dihydro-1H-purin-7(6H)-yl)acetamide]: the IC50 on human TRPA1 (hTRPA1) turned out to be 93.5 nM.

Take `CC(C(=O)Nc1ccnc(-c2cnc(N3CCCC[C@@H]3C)nc2)n1)n1cnc2c1c(=O)n(C)c(=O)n2C` (stereo partly drawn) [Compound 23, 2-(1,3-dimethyl-2,6-dioxo-2,3-dihydro-1H-purin-7(6H)-yl)-N-(2′-((S)-2-methylpiperidin-1-yl)-2,5′-bipyrimidin-4-yl)propanamide]: the solubility kinetic at 24 h was 20 µg/mL (≈ 39.6 µM) in series [1] (setting [4]), 14 µg/mL (≈ 27.7 µM) in series [1] (setting [5]) and 31 µg/mL (≈ 61.4 µM) in series [1] (setting [6]). The IC50 on human TRPA1 (hTRPA1) was found to be 60.7 nM. Moreover, in series [2], the “Human Liver Microsomes Hepatic Clearance” value was found to be 18 mL/min/kg. Moreover, the half-life at 1 μM in series [2] came out at 4 min.

As for `Cn1c(=O)c2c(ncn2CC(=O)Nc2ccnc(-c3cnc(N4CCC(F)(F)CC4)nc3)n2)n(C)c1=O` [Compound 8, N-(2′-(4,4-difluoropiperidin-1-yl)-[2,5′-bipyrimidin]-4-yl)-2-(1,3-dimethyl-2,6-dioxo-2,3-dihydro-1H-purin-7(6H)-yl)acetamide], on human TRPA1 (hTRPA1), the IC50 is 71.9 nM. Besides, the values for the half-life at 1 μM in series [2] and in series [3] were 38.4 min and 115 min, respectively.

With `C[C@H]1CCCN1c1ncc(-c2nccc(NC(=O)Cn3cnc4c3c(=O)[nH]c(=O)n4C)n2)cn1` [Compound 24, (S)-2-(3-methyl-2,6-dioxo-2,3-dihydro-1H-purin-7(6H)-yl)-N-(2′-(2-methylpyrrolidin-1-yl)-[2,5′-bipyrimidin]-4-yl)acetamide], on human TRPA1 (hTRPA1), the IC50 came to 436 nM.

`C[C@H](C(=O)Nc1ccnc(-c2cnc(N3CCC[C@H]3C(F)(F)F)nc2)n1)n1cnc2c1c(=O)n(C)c(=O)n2C` [Compound 3, (R)-2-(1,3-dimethyl-2,6-dioxo-2,3-dihydro-1H-purin-7(6H)-yl)-N-(2′-((S)-2-(trifluoromethyl)pyrrolidin-1-yl)-[2,5′-bipyrimidin]-4-yl)propanamide]: on human TRPA1 (hTRPA1), the IC50 is 2290 nM.

`[2H]C([2H])([2H])n1c(=O)n(C)c(=O)c2c1ncn2CC(=O)Nc1ccnc(-c2cnc(N3CCC[C@@H]3C)nc2)n1` [Compound 25, N-{2-[2-((2S)-2-methylpyrrolidinyl)pyrimidin-5-yl]pyrimidin-4-yl}-2-(1-methyl-3-methyl-d3-2,6-dioxo(1,3,7-trihydropurin-7-yl))acetamide]: the solubility kinetic at 24 h in series [1] (setting [4]) stood at 45 µg/mL (≈ 93.8 µM); in series [1] (setting [5]), 11 µg/mL (≈ 22.9 µM); in series [1] (setting [6]) it was 29 µg/mL (≈ 60.5 µM). Moreover, the IC50 at human TRPA1 (hTRPA1) was 107 nM. The “Human Liver Microsomes Hepatic Clearance” value in series [2] is recorded as 8 mL/min/kg. This molecule gave a half-life at 1 μM in series [2] of 43 min.

In the case of `C[C@@H](C(=O)Nc1ccnc(-c2cnc(N3CCC(F)(F)CC3)nc2)n1)n1cnc2c1c(=O)n(C)c(=O)n2C` [Compound 14, (S)—N-(2′(4,4-difluoropiperidin-1-yl)-2,5′-bipyrimidin-4-yl)-2-(1,3-dimethyl-2,6-dioxo-2,3-dihydro-1H-purin-7(6H)-yl)propanamide], the IC50 at human TRPA1 (hTRPA1) came out at 94.8 nM.

Turning to `C[C@H](C(=O)Nc1ccnc(-c2cnc(N3CCC[C@@H]3C)nc2)n1)n1cnc2c1c(=O)n(C)c(=O)n2C` [Compound 22, (R)-2-(1,3-dimethyl-2,6-dioxo-2,3-dihydro-1H-purin-7(6H)-yl)-N-(2′-((S)-2-methylpyrrolidin-1-yl)-[2,5′-bipyrimidin]-4-yl)propanamide], the solubility kinetic at 24 h in series [1] (setting [4]) is 50 µg/mL (≈ 102 µM); in series [1] (setting [5]) it was 70 µg/mL (≈ 143 µM); in series [1] (setting [6]) it was 89 µg/mL (≈ 181 µM). The IC50 on human TRPA1 (hTRPA1) was more than 3200 nM. In series [2], the “Human Liver Microsomes Hepatic Clearance” value is 12 mL/min/kg. The molecule further came in with a half-life at 1 μM in series [2] of 26 min.

`C[C@@H](C(=O)Nc1ccnc(-c2cnc(N3CC(F)(F)C3)nc2)n1)n1cnc2c1c(=O)n(C)c(=O)n2C` [Compound 9, (S)—N-(2′-(3,3-difluoroazetidin-1-yl)-2,5′-bipyrimidin-4-yl)-2-(1,3-dimethyl-2,6-dioxo-2,3-dihydro-1H-purin-7(6H)-yl)propanamide]: on human TRPA1 (hTRPA1), the IC50 was 462 nM.

In the case of `Cn1c(=O)c2c(ncn2CC(=O)Nc2ccnc(-c3cnc(N4CCC(C(F)(F)F)C4)nc3)n2)n(C)c1=O` (stereo not shown) [Compound 11, 2-(1,3-dimethyl-2,6-dioxo-2,3-dihydro-1H-purin-7(6H)-yl)-N-(2′-(3-(trifluoromethyl)pyrrolidin-1-yl)-[2,5′ bipyrimidin]-4-yl)acetamide], the IC50 on human TRPA1 (hTRPA1) came out at 124 nM.

Take `Cn1c(=O)c2c(ncn2CC(=O)Nc2ccnc(-c3cnc(N4CCC[C@H]4C(F)(F)F)nc3)n2)n(C)c1=O` [Compound 27, (S)-2-(1,3-dimethyl-2,6-dioxo-2,3-dihydro-1H-purin-7(6H)-yl)-N-(2′-(2-(trifluoromethyl)pyrrolidin-1-yl)-[2,5′-bipyrimidin]-4-yl)acetamide]: on human TRPA1 (hTRPA1), the IC50 was determined as 255 nM.

As to `C[C@H](C(=O)Nc1ccnc(-c2cnc(N3CCC[C@@H]3C(F)(F)F)nc2)n1)n1cnc2c1c(=O)n(C)c(=O)n2C` [Compound 28], at human TRPA1 (hTRPA1), the IC50 was 65.9 nM.

Consider `Cn1c(=O)c2c(ncn2CC(=O)Nc2ccnc(-c3cnc(N4CC(C(F)(F)F)C4)nc3)n2)n(C)c1=O` [Compound 12, 2-(1,3-dimethyl-2,6-dioxo-1,2,3,6-tetrahydropurin-7-yl)-N-(2-(2-(3-(trifluoromethyl)azetidin-1-yl)pyrimidin-5-yl)pyrimidin-4-yl)acetamide], for which, on human TRPA1 (hTRPA1), the IC50 amounted to 387 nM.

In the case of `Cn1c(=O)c2c(ncn2CC(=O)Nc2ccnc(-c3cnc(N4CC(F)(F)C4)nc3)n2)n(C)c1=O` [Compound 7, N-(2′-(3,3-difluoroazetidin-1-yl)-[2,5′-bipyrimidin]-4-yl)-2-(1,3-dimethyl-2,6-dioxo-2,3-dihydro-1H-purin-7(6H)-yl)acetamide], the IC50 at human TRPA1 (hTRPA1) was 922 nM.

Source of the values: patent US20170050966A1, “INHIBITING THE TRANSIENT RECEPTOR POTENTIAL A1 ION CHANNEL” (HYDRA BIOSCIENCES, INC., priority 2014, published 2017).
